Laboratory results reported in ChEMBL document CHEMBL5113511, “Discovery of Small-Molecule Degraders of the CDK9-Cyclin T1 Complex for Targeting Transcriptional Addiction in Prostate Cancer” (J Med Chem, 2022).
Active and inactive are the calls of the source. No cut-off for these calls is given here.

Key:
[1] = molecular target: T1, CDK9/cyclin T1 (Homo sapiens) (UniProt O60563+P50750); experiment: Induction of CDK9/Cyclin T1 degradation in human 22Rv1 cells assessed as downregulation of NKX3-1 gene expression at 2 uM incubated for 24 hrs by RNA-Seq based analysis; assay type: cell-based
Cyclin-T2 (Homo sapiens) = Cyclin-T2 (Homo sapiens) (UniProt O60583); experiment: Induction of HyT-mediated degradation of cyclin T2 in human 22Rv1 cells assessed as reduction in cyclin T2 level at 3 to 6 uM incubated for 24 hrs by immunoblot analysis; assay type: cell-based; details: dose 3-6 µM
Chain of Cyclin-T2 (Homo sapiens) (O60583 whole entry): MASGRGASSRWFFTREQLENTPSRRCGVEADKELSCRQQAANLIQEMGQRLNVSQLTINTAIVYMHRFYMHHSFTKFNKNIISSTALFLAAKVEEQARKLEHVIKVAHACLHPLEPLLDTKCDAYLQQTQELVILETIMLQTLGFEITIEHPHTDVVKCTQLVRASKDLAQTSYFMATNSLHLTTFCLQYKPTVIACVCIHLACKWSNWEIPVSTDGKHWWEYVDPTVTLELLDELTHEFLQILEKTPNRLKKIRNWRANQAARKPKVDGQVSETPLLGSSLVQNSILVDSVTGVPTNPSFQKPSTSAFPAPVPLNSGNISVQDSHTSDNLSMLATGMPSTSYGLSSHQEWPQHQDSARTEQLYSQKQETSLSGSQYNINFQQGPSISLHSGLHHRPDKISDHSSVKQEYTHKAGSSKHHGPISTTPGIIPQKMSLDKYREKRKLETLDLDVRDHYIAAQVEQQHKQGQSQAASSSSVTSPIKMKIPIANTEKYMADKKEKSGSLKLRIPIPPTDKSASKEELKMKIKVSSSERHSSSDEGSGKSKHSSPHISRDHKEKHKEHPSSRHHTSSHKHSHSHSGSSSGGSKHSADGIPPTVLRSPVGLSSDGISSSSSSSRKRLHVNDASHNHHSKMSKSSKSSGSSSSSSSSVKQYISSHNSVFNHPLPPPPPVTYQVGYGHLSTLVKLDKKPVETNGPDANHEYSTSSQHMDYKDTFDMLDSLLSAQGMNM

[2] = molecular target: T2, Cyclin-dependent kinase 9 (Homo sapiens, UniProt P50750); experiment: Induction of HyT-mediated degradation of CDK9 in human 22Rv1 cells at 3 uM measured after 5 to 18 hrs by immunoblot analysis; assay type: cell-based; details: time 5-18 hrs
T2 sequence (P50750 whole entry): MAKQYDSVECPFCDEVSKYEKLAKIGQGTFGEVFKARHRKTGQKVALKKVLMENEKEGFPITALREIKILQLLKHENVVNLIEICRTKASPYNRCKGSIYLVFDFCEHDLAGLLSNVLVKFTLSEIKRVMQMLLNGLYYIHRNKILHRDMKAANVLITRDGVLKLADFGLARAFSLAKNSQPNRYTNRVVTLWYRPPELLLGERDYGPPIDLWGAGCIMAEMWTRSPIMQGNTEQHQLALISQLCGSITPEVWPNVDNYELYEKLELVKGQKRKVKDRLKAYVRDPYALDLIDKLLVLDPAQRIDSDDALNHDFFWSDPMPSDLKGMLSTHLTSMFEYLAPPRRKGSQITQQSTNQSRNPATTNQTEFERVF

CWR22R [3] = experiment: Inhibition of colony formation in human 22Rv1 cells at 100 to 200 nM treated for 14 days with replacement with fresh medium containing compound for every 48 hrs by crystal violet staining based analysis; assay type: functional, cell-based; details: dose 100-200 nM, time 14.0 day
[4] = molecular target: Cyclin-dependent kinase 1 (Homo sapiens) (UniProt P06493); experiment: Induction of CDK1 degradation in human 22Rv1 cells assessed as downregulation of CDK1 level at 3 uM measured after 12 hrs by DIA-based proteomics analysis; assay type: cell-based
Chain of Cyclin-dependent kinase 1 (Homo sapiens) (P06493 whole entry, looked up): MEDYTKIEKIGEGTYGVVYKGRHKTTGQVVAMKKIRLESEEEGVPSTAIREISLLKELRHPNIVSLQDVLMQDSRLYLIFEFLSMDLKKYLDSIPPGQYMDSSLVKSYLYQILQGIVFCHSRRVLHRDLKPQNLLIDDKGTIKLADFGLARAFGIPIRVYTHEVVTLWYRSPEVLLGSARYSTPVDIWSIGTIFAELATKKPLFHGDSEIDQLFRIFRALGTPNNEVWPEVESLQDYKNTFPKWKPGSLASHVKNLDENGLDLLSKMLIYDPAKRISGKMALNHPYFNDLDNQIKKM

[5] = molecular target: T1, CDK9/cyclin T1 (Homo sapiens); experiment: Induction of CDK9/Cyclin T1 degradation in human 22Rv1 cells assessed as downregulation of AR protein expression at 2 uM measured after 24 hrs by immunoblot analysis; assay type: cell-based
Cyclin-T1 [6] = molecular target: T3, Cyclin-T1 (Homo sapiens, UniProt O60563); experiment: Induction of Hyt-mediated degradation of cyclin T1 in human 22Rv1 cells assessed as downregulation of cyclin T1 level at 2 uM incubated for 24 hrs by DIA-based proteomics analysis; assay type: cell-based
T3 sequence (O60563 whole entry): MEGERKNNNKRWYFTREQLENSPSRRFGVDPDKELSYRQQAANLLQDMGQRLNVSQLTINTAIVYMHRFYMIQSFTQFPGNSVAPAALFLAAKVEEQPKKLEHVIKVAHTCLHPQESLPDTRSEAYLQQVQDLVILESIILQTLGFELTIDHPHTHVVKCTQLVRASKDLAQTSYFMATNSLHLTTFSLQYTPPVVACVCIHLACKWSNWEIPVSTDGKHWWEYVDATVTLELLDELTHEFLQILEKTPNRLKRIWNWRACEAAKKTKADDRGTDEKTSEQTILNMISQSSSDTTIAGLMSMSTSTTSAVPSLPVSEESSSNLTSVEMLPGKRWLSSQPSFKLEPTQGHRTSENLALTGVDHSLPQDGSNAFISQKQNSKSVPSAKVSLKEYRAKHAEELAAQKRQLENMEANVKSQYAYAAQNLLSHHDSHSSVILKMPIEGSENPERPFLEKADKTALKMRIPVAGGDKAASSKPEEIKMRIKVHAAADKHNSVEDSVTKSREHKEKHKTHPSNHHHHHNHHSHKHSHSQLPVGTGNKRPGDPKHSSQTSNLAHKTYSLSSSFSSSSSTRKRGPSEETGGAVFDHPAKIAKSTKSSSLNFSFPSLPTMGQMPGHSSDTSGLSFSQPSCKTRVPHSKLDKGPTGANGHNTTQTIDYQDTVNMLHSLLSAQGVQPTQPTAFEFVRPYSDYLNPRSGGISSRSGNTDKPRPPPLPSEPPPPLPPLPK

Cyclin-T1 [7] = molecular target: T3, Cyclin-T1; experiment: Induction of HA-tagged Cyclin T1 (unknown origin) polyubiquitination expressed in HEK293T cells co-transfected with Flag-tagged CDK9 and Myc ubiquitin assessed as increase in K48-linkage poly-ubiqutinated Cyclin T1 level at 1 to 2 uM incubated for 20 hrs by western blot analysis; assay type: cell-based; details: dose 1-2 µM
CWR22R [8] = experiment: Induction of cell cycle arrest in human 22Rv1 cells assessed as accumulation of cells at G1 phase at 0.3 to 1 uM incubated for 24 hrs by propidium iodide staining based flow cytometry; assay type: functional; details: dose 0.3-1 µM
[9] = molecular target: T2, Cyclin-dependent kinase 9; experiment: Induction of HyT-mediated degradation of CDK9 in human 22Rv1 cells incubated for 24 hrs by immunoblot analysis; assay type: cell-based
[10] = molecular target: T1, CDK9/cyclin T1 (Homo sapiens); experiment: Induction of CDK9/Cyclin T1 degradation in human 22Rv1 cells assessed as downregulation of NAT1 gene expression at 2 uM incubated for 24 hrs by RNA-Seq based analysis; assay type: cell-based
CWR22R [11] = experiment: Downregulation of CDK4 level in human 22Rv1 cells at 3 uM measured after 12 hrs by DIA-based proteomics analysis; assay type: functional, cell-based
[12] = molecular target: T1, CDK9/cyclin T1 (Homo sapiens); experiment: Induction of CDK9/Cyclin T1 degradation in human 22Rv1 cells assessed as downregulation of BTG1 gene expression at 2 uM incubated for 24 hrs by RNA-Seq based analysis; assay type: cell-based
[13] = molecular target: T1, CDK9/cyclin T1 (Homo sapiens); experiment: Induction of CDK9/Cyclin T1 degradation in human 22Rv1 cells assessed as downregulation of AR-V7 splice variant protein expression at 2 uM measured after 24 hrs by immunoblot analysis; assay type: cell-based
[14] = molecular target: T1, CDK9/cyclin T1 (Homo sapiens); experiment: Induction of CDK9/Cyclin T1 degradation in human 22Rv1 cells assessed as downregulation of WNT2 gene expression at 2 uM incubated for 24 hrs by RNA-Seq based analysis; assay type: cell-based
Cyclin-T1 [15] = molecular target: T3, Cyclin-T1; experiment: Induction of HyT-mediated degradation of Cyclin T1 in human 22Rv1 cells incubated for 24 hrs by immunoblot analysis; assay type: cell-based
[16] = molecular target: T1, CDK9/cyclin T1 (Homo sapiens); experiment: Induction of CDK9/Cyclin T1 degradation in human 22Rv1 cells assessed as downregulation of KLK3 protein expression at 0.3 to 3 uM incubated fo 24 hrs by immunoblot analysis; assay type: cell-based; details: dose 0.3-3 µM
Cyclin-T1 [17] = molecular target: T3, Cyclin-T1; experiment: Induction of HA-tagged Cyclin T1 (unknown origin) polyubiquitination expressed in HEK293T cells co-transfected with Flag-tagged CDK9 and Myc ubiquitin assessed as increase in K48-linkage poly-ubiqutinated Cyclin T1 level at 1 to 2 uM incubated for 20 hrs by immunoprecipitation analysis; assay type: cell-based; details: dose 1-2 µM
CWR22R [18] = experiment: Downregulation of CDK1 level in human 22Rv1 cells at 3 uM measured after 12 hrs by DIA-based proteomics analysis; assay type: functional, cell-based
[19] = molecular target: T1, CDK9/cyclin T1 (Homo sapiens); experiment: Induction of CDK9/Cyclin T1 degradation in human 22Rv1 cells assessed as downregulation of JMJD6 protein expression at 3 uM measured after 36 hrs by DIA-based proteomics analysis; assay type: cell-based
Cyclin-T1 [20] = molecular target: T3, Cyclin-T1; experiment: Induction of HyT-mediated degradation of Cyclin T1 in human 22Rv1 cells at 3 uM measured for 36 hrs by DIA-based proteomics analysis; assay type: cell-based
[21] = molecular target: T2, Cyclin-dependent kinase 9; experiment: Induction of HyT-mediated degradation of CDK9 in human 22Rv1 cells at 0.3 to 3 uM incubated for 24 hrs by immunoblot analysis; assay type: cell-based; details: dose 0.3-3 µM
[22] = molecular target: T2, Cyclin-dependent kinase 9; experiment: Induction of Hyt-mediated degradation of CDK9 in human 22Rv1 cells assessed as downregulation of CDK9 level at 2 uM incubated for 24 hrs by DIA-based proteomics analysis; assay type: cell-based
CWR22R [23] = experiment: Antiproliferative activity against human 22Rv1 cells assessed as reduction in cell viability measured after 5 days by CellTiter-Glo assay; assay type: functional, cell-based; details: 22Rv1, 120 h
[24] = molecular target: T2, Cyclin-dependent kinase 9; experiment: Induction of HyT-mediated degradation of CDK9 in human 22Rv1 cells at 3 uM measured for 36 hrs by DIA-based proteomics analysis; assay type: cell-based
[25] = molecular target: T1, CDK9/cyclin T1 (Homo sapiens); experiment: Induction of CDK9/Cyclin T1 degradation in human 22Rv1 cells assessed as downregulation of AKR1C3 gene expression at 2 uM incubated for 24 hrs by RNA-Seq based analysis; assay type: cell-based
Cyclin-T1 [26] = molecular target: T3, Cyclin-T1; experiment: Induction of HyT-mediated degradation of Cyclin T1 in human 22Rv1 cells at 3 uM measured after 5 to 18 hrs by immunoblot analysis; assay type: cell-based; details: time 5-18 hrs
CWR22R [27] = experiment: Downregulation of CDK7 level in human 22Rv1 cells at 3 uM measured after 12 hrs by DIA-based proteomics analysis; assay type: functional, cell-based
[28] = molecular target: T2, Cyclin-dependent kinase 9; experiment: Induction of Flag-tagged CDK9 (unknown origin) polyubiquitination expressed in HEK293T cells co-transfected with HA-tagged Cyclin T1 and Myc ubiquitin assessed as increase in K48-linkage poly-ubiqutinated CDK9 level at 1 to 2 uM incubated for 20 hrs by western blot analysis; assay type: cell-based; details: dose 1-2 µM
[29] = molecular target: Cyclin-dependent kinase 7 (Homo sapiens) (UniProt P50613); experiment: Induction of CDK7 degradation in human 22Rv1 cells assessed as downregulation of CDK7 level at 3 uM measured after 12 hrs by DIA-based proteomics analysis; assay type: cell-based
Chain of Cyclin-dependent kinase 7 (Homo sapiens) (P50613 whole entry): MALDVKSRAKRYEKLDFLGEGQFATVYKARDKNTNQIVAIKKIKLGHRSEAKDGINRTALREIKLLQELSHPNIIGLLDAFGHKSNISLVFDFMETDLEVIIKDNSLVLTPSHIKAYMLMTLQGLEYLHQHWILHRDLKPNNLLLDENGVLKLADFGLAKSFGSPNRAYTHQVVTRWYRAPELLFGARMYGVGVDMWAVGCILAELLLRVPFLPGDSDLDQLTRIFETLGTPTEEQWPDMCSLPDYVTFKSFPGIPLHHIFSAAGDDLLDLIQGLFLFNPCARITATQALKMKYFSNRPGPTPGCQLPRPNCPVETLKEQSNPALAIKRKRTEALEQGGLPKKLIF

[30] = molecular target: Cyclin-dependent kinase 4 (Homo sapiens) (UniProt P11802); experiment: Induction of CDK4 degradation in human 22Rv1 cells assessed as downregulation of CDK4 level at 3 uM measured after 12 hrs by DIA-based proteomics analysis; assay type: cell-based
Chain of Cyclin-dependent kinase 4 (Homo sapiens) (P11802 whole entry): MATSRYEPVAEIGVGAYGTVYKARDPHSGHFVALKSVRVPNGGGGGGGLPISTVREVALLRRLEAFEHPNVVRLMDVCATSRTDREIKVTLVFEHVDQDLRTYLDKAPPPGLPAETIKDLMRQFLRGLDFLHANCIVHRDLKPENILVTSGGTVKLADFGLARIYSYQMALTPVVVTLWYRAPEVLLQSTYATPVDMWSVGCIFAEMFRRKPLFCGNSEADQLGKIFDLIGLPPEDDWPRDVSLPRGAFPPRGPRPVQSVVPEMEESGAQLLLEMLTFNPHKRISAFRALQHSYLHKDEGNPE

[31] = molecular target: T1, CDK9/cyclin T1 (Homo sapiens); experiment: Induction of CDK9/Cyclin T1 degradation in human 22Rv1 cells assessed as downregulation of KLK15 gene expression at 2 uM incubated for 24 hrs by RNA-Seq based analysis; assay type: cell-based

Activity [1]: Active | Activity (Cyclin-T2 (Homo sapiens)): Active | Activity [2]: Active | Activity [4]: Active | Activity [5]: Active | Activity (Cyclin-T1 [6]): Active | Activity (Cyclin-T1 [7]): Active | DC50 [9]: 0.662 µM | Activity [10]: Active | Activity [12]: Active | Activity [13]: Active | Activity [14]: Active | DC50 (Cyclin-T1 [15]): 0.589 µM | Activity [16]: Active | Activity (Cyclin-T1 [17]): Active | Activity [19]: Active | Activity (Cyclin-T1 [20]): Active | Activity [21]: Active | Activity [22]: Active | Activity [24]: Active | Activity [25]: Active | Activity (Cyclin-T1 [26]): Active | Activity [28]: Active | Activity [29]: Active | Activity [30]: Active | Activity [31]: Active
SMILES: CC(C)[C@@H]1CC[C@@H](C)C[C@H]1OCC(=O)NCCS(=O)(=O)N1CCC(C(=O)Nc2ncc(SCc3ncc(C(C)(C)C)o3)s2)CC1
inhibition (CWR22R [3]): Active | Activity (CWR22R [8]): Active | inhibition (CWR22R [11]): Active | inhibition (CWR22R [18]): Active | IC50 (CWR22R [23]): 0.095 µM | inhibition (CWR22R [27]): Active
